From the supplement of paper PMC10307832

Columns and labels:
Test in all cases: relative viability (nuclei count vs DMSO), 5 days (fraction); higher = more cells survive
[1] = compound: CCN1C(=O)C2=CC(=C(N=C2N(C1=O)C3CC3)N)C(=O)N + Nc1nc2[nH]cc(CCc3ccc(C(=O)N[C@@H](CCC(=O)O)C(=O)O)cc3)c2c(=O)[nH]1 [Pemetrexed] (partner 0.2 µM)
In short: (§1)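 Cells from lung cancer lines were seeded into 1536-well plates and, one day later, dosed by pin tool. Treatments were either a single drug or a fixed dose of an anchor drug with five library-drug doses (not always all listed) in √10 steps. After 5 days, nuclei were stained in a one-step fixation (final 0.05% Triton X-100, 1% formaldehyde, 1 ug/ml Hoechst) and counted on 4× images, and relative viability is the treated-to-vehicle nuclei ratio, as the median of duplicate plates.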

[2] = compound: CCN1C(=O)C2=CC(=C(N=C2N(C1=O)C3CC3)N)C(=O)N + CS(=O)(=O)CCNCc1ccc(-c2ccc3ncnc(Nc4ccc(OCc5cccc(F)c5)c(Cl)c4)c3c2)o1 [Lapatinib] (partner 2 µM)
In short: as §1

[3] = compound: CCN1C(=O)C2=CC(=C(N=C2N(C1=O)C3CC3)N)C(=O)N + O=C(c1cc(Cc2n[nH]c(=O)c3ccccc23)ccc1F)N1CCN(C(=O)C2CC2)CC1 [Olaparib] (partner 8 µM)
In short: as §1

[4] = compound: CCN1C(=O)C2=CC(=C(N=C2N(C1=O)C3CC3)N)C(=O)N + N=C(N)NC(=N)NCCc1ccccc1 [Phenformin] (partner 250 µM)
In short: as §1

[5] = compound: CCN1C(=O)C2=CC(=C(N=C2N(C1=O)C3CC3)N)C(=O)N + CC(=O)c1c(C)c2cnc(Nc3ccc(N4CCNCC4)cn3)nc2n(C2CCCC2)c1=O [Palbociclib] (partner 0.5 µM)
In short: as §1

Row | Cell Line | relative viability ([1]; first compound 0.253 µM) | relative viability ([1]; first compound 0.8 µM) | relative viability ([1]; first compound 2.53 µM) | relative viability ([1]; first compound 8 µM) | relative viability ([2]; first compound 0.253 µM) | relative viability ([2]; first compound 0.8 µM) | relative viability ([2]; first compound 2.53 µM) | relative viability ([2]; first compound 8 µM) | relative viability ([3]; first compound 0.253 µM) | relative viability ([3]; first compound 0.8 µM) | relative viability ([3]; first compound 2.53 µM) | relative viability ([3]; first compound 8 µM) | relative viability ([4]; first compound 0.253 µM) | relative viability ([4]; first compound 0.8 µM) | relative viability ([4]; first compound 2.53 µM) | relative viability ([4]; first compound 8 µM) | relative viability ([5]; first compound 0.253 µM) | relative viability ([5]; first compound 0.8 µM) | relative viability ([5]; first compound 2.53 µM) | relative viability ([5]; first compound 8 µM)
1 | NCI-H23 | 0.785 | 0.734 | 0.677 | 0.634 | 1.21 | 1.08 | 1.06 | 1.11 | 0.325 | 0.292 | 0.336 | 0.332 | 0.789 | 0.768 | 0.749 | 0.675 | 0.502 | 0.604 | 0.461 | 0.49
2 | NCI-H322M | 0.632 | 0.541 | 0.634 | 0.6 | 0.585 | 0.536 | 0.562 | 0.592 | 0.855 | 0.785 | 0.753 | 0.822 | 0.822 | 0.736 | 0.75 | 0.868 | 0.478 | 0.455 | 0.482 | 0.502
3 | NCI-H358 | 0.172 | 0.181 | 0.188 | 0.164 | 0.424 | 0.417 | 0.526 | 0.612 | 0.584 | 0.61 | 0.578 | 0.581 | 0.355 | 0.351 | 0.388 | 0.298 | 0.122 | 0.134 | 0.127 | 0.14
4 | NCI-H460 | 0.0628 | 0.0522 | 0.0677 | 0.0646 | 1.04 | 1.07 | 0.902 | 1.02 | 0.432 | 0.364 | 0.433 | 0.445 | 0.519 | 0.571 | 0.476 | 0.499 | 0.22 | 0.151 | 0.115 | 0.192
5 | NCI-H520 | 0.635 | 0.64 | 0.703 | 0.657 | 0.898 | 0.907 | 0.957 | 0.941 | 0.335 | 0.341 | 0.356 | 0.3 | 0.582 | 0.643 | 0.59 | 0.508 | 0.24 | 0.228 | 0.185 | 0.203
6 | NCI-H647 | 0.174 | 0.205 | 0.157 | 0.185 | 1.09 | 1.13 | 0.992 | 1.13 | 0.56 | 0.484 | 0.586 | 0.741 | 0.418 | 0.519 | 0.428 | 0.637 | 0.434 | 0.356 | 0.328 | 0.355
7 | NCI-H650 | 0.962 | 0.782 | 0.954 | 0.978 | 1.03 | 0.883 | 1.07 | 0.872 | 0.437 | 0.39 | 0.296 | 0.445 | 0.502 | 0.388 | 0.448 | 0.433 | 0.363 | 0.299 | 0.342 | 0.334
8 | NCI-H661 | 0.918 | 0.905 | 0.935 | 0.886 | 0.526 | 0.631 | 0.428 | 0.5 | 0.774 | 0.782 | 0.672 | 0.748 | 0.287 | 0.302 | 0.267 | 0.278 | 0.391 | 0.389 | 0.39 | 0.4
9 | NCI-H838 | 0.239 | 0.274 | 0.242 | 0.248 | 0.948 | 1.02 | 0.916 | 0.896 | 0.737 | 0.764 | 0.746 | 0.722 | 0.607 | 0.589 | 0.551 | 0.545 | 0.251 | 0.216 | 0.215 | 0.213
10 | NCI-H1355 | 1.03 | 1 | 1.03 | 0.96 | 1.08 | 1.06 | 0.998 | 1.01 | 0.8 | 0.702 | 0.759 | 0.721 | 0.463 | 0.473 | 0.451 | 0.436 | 0.418 | 0.358 | 0.396 | 0.395
11 | NCI-H1395 | 0.922 | 0.811 | 0.979 | 0.816 | 1.04 | 0.915 | 1.1 | 0.893 | 0.43 | 0.481 | 0.457 | 0.491 | 0.451 | 0.428 | 0.464 | 0.439 | 0.707 | 0.694 | 0.603 | 0.578
12 | NCI-H1437 | 0.294 | 0.316 | 0.287 | 0.304 | 0.818 | 0.794 | 0.829 | 0.838 | 0.684 | 0.637 | 0.622 | 0.585 | 0.269 | 0.363 | 0.334 | 0.276 | 0.337 | 0.323 | 0.315 | 0.245
13 | NCI-H1650 | 0.38 | 0.324 | 0.333 | 0.382 | 0.337 | 0.815 | 0.746 | 0.904 | 0.707 | 0.665 | 0.714 | 0.733 | 0.47 | 0.4 | 0.367 | 0.379 | 0.315 | 0.364 | 0.346 | 0.313
14 | NCI-H1651 | 0.582 | 0.608 | 0.588 | 0.597 | 0.749 | 0.78 | 0.936 | 0.834 | 0.223 | 0.177 | 0.202 | 0.186 | 0.297 | 0.326 | 0.328 | 0.313 | 0.471 | 0.489 | 0.512 | 0.501
15 | NCI-H1666 | 0.844 | 0.879 | 0.812 | 0.799 | 0.831 | 0.495 | 0.633 | 0.736 | 0.719 | 0.724 | 0.856 | 0.737 |  | 0.562 | 0.58 | 0.558 | 0.683 | 0.654 | 0.629 | 0.65
16 | NCI-H1734 | 0.432 | 0.392 | 0.405 | 0.423 | 1.08 | 1.07 | 1.03 | 1.1 | 0.672 | 0.695 | 0.579 | 0.675 | 0.381 | 0.365 | 0.384 | 0.361 | 0.346 | 0.328 | 0.363 | 0.36
